In US8741897B2, “Glucocorticoid mimetics, methods of making them, pharmaceutical compositions and uses thereof” (Boehringer Ingelheim Pharmaceuticals Inc., priority 2003, dated 2014):

Key:
[1] = molecular target: T1, human glucocorticoid receptor (GR) complex (Homo sapiens, UniProt P04150); experiment: Glucocorticoid receptor competitive binding assay (fluorescence polarization, TAMRA-labeled dexamethasone probe); conditions: compounds of Formula (IA)
T1 construct: made in house; host or cells: insect expression system (baculovirus lysate)
T1 sequence (P04150 1-777): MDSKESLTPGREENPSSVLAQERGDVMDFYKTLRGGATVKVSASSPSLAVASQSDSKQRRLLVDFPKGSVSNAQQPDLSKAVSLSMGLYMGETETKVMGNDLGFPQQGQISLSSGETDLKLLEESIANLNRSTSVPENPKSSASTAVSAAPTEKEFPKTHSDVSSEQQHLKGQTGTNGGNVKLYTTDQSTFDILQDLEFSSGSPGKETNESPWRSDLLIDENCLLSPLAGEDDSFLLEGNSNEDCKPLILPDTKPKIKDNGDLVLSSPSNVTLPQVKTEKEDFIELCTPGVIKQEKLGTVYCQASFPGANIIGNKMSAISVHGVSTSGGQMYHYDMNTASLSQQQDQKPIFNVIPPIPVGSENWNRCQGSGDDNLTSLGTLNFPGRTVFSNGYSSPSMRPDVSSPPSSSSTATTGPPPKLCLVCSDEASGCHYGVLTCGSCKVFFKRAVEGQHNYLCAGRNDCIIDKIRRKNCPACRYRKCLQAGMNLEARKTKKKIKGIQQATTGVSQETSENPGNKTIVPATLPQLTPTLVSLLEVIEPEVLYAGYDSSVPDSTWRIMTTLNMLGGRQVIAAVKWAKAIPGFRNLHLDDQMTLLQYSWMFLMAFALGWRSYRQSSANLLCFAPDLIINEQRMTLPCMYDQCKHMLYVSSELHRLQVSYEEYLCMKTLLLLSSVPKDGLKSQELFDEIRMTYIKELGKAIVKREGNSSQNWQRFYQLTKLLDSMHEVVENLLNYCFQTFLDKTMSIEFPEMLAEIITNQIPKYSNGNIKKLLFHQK
How it was run: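 Fluorescence-polarization competition against 15 nM TAMRA-dexamethasone (stock added to the mix) for human GR complex from baculovirus lysate diluted 1:170. Buffer: 10 mM TES, 50 mM KCl, 20 mM Na2MoO4, 1.5 mM EDTA, 0.04% CHAPS, 10% glycerol, 1 mM DTT, pH 7.4. IC50 from 4-parameter logistic fit.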

[2] = system: glucocorticoid receptor function; experiment: one or more of the above assays (GR binding and glucocorticoid receptor cell assays: aromatase, IL-6, TAT, MMTV-Luc, IL-8, ICAM-Luc); type: cell-based; conditions: assay not specified per compound

SMILES | activity in the GR binding assay [1] | activity as agonists of the glucocorticoid receptor function in one or more of the above assays [2]
COc1ccc(F)cc1C(C)(C)CC(O)(Cc1cc2cc(Cl)nc(Cl)c2[nH]1)C(F)(F)F (centres unmarked) [2-(5,7-Dichloro-1H-pyrrolo[2,3-c]pyridin-2-ylmethyl)-1,1,1-trifluoro-4-(5-fluoro-2-methoxyphenyl)-4-methylpentan-2-ol] | potent activity | potent agonists
COc1ccc(F)cc1C(C)(C)CC(O)(Cc1cc2cc(C(=O)N3CCOCC3)ccc2[nH]1)C(F)(F)F (centres unmarked) [{2-[4-(5-Fluoro-2-methoxyphenyl)-2-hydroxy-4-methyl-2-trifluoromethylpentyl]-1H-indol-5-yl}morpholin-4-ylmethanone] | potent activity | potent agonists
Cc1cc(F)ccc1C(C)(C)CC(O)(Cc1ccnc2ccccc12)C(F)(F)F (centres unmarked) [1,1,1-Trifluoro-4-(4-fluoro-2-methylphenyl)-4-methyl-2-quinolin-4-ylmethylpentan-2-ol] | potent activity | potent agonists
COc1ccc(F)cc1C(C)(C)CC(O)(Cc1cc2ncncc2[nH]1)C(F)(F)F (centres unmarked) [1,1,1-Trifluoro-4-(5-fluoro-2-methoxyphenyl)-4-methyl-2-(5H-pyrrolo[3,2-d]pyrimidin-6-ylmethyl)pentan-2-ol] | potent activity | potent agonists
COc1ccc(F)cc1C(C)(C)CC(O)(Cc1cc2c(OC)ncnc2[nH]1)C(F)(F)F (centres unmarked) [1,1,1-Trifluoro-4-(5-fluoro-2-methoxyphenyl)-2-(4-methoxy-7H-pyrrolo[2,3-d]pyrimidin-6-ylmethyl)-4-methylpentan-2-ol] | potent activity | potent agonists
CC(C)(CC(O)(Cc1ccnc2ccccc12)C(F)(F)F)c1cccc(F)c1 (centres unmarked) [1,1,1-Trifluoro-4-(3-fluorophenyl)-4-methyl-2-quinolin-4-ylmethylpentan-2-ol] | potent activity | potent agonists
Cc1cc2[nH]c(CC(O)(CC(C)(C)c3cc(F)ccc3C)C(F)(F)F)cc2c(C)n1 (centres unmarked) [2-(4,6-Dimethyl-1H-pyrrolo[3,2-c]pyridin-2-ylmethyl)-1,1,1-trifluoro-4-(5-fluoro-2-methylphenyl)-4-methylpentan-2-ol] | potent activity | potent agonists
CC(C)(CC(O)(Cc1cc2ccncc2[nH]1)C(F)(F)F)c1cc(Cl)cc2c1OCC2 (centres unmarked) [4-(5-Chloro-2,3-dihydrobenzofuran-7-yl)-1,1,1-trifluoro-4-methyl-2-(1H-pyrrolo[2,3-c]pyridin-2-ylmethyl)pentan-2-ol] | potent activity | potent agonists
COc1ccc(F)cc1C(C)(C)CC(O)(Cc1cc(C)nc2ccccc12)C(F)(F)F (centres unmarked) [1,1,1-Trifluoro-4-(5-fluoro-2-methoxyphenyl)-4-methyl-2-(2-methylquinolin-4-ylmethyl)pentan-2-ol] | potent activity | potent agonists
Cc1ccc(F)cc1C(C)(C)CC(O)(Cc1cc2ccnc(F)c2[nH]1)C(F)(F)F (centres unmarked) [1,1,1-Trifluoro-4-(5-fluoro-2-methylphenyl)-2-(7-fluoro-1H-pyrrolo[2,3-c]pyridin-2-ylmethyl)-4-methylpentan-2-ol] | potent activity | potent agonists
Cc1ccc(O)c(C(C)(C)CC(O)(Cc2cc3c(C)cc(C#N)cc3[nH]2)C(F)(F)F)c1 (centres unmarked) [2-[2-Hydroxy-4-(2-hydroxy-5-methylphenyl)-4-methyl-2-trifluoromethylpentyl]-4-methyl-1H-indole-6-carbonitrile] | potent activity | potent agonists
Cc1cc2c(c(C(C)(C)CC(O)(Cc3cc4ccncc4[nH]3)C(F)(F)F)c1)OCC2 (centres unmarked) [1,1,1-Trifluoro-4-methyl-4-(5-methyl-2,3-dihydrobenzofuran-7-yl)-2-(1H-pyrrolo[2,3-c]pyridin-2-ylmethyl)pentan-2-ol] | potent activity | potent agonists
CC(C)(CC(O)(Cc1cc(Cl)nc(Cl)c1C#N)C(F)(F)F)c1cc(F)ccc1O (centres unmarked) [2,6-Dichloro-4-[4-(5-fluoro-2-hydroxyphenyl)-2-hydroxy-4-methyl-2-trifluoromethylpentyl]nicotinonitrile] | potent activity | potent agonists
COc1ccc(F)cc1C(C)(C)CC(O)(Cc1cc2cc(Cl)ncc2[nH]1)C(F)(F)F (centres unmarked) [1,1,1-Trifluoro-4-(5-fluoro-2-methoxyphenyl)-2-(5-chloro-1H-pyrrolo[2,3-c]pyridin-2-ylmethyl)-4-methylpentan-2-ol] | potent activity | potent agonists
CC(C)(CC(O)(Cc1cc2cc(C(F)(F)F)ccc2[nH]1)C(F)(F)F)c1cc(F)ccc1O (centres unmarked) [4-Fluoro-2-[4,4,4-trifluoro-3-hydroxy-1,1-dimethyl-3-(5-trifluoromethyl-1H-indol-2-ylmethyl)butyl]phenol] | potent activity | potent agonists
Cc1ccc(F)cc1C(C)(C)CC(O)(Cc1[nH]c2cnccc2c1C)C(F)(F)F (centres unmarked) [1,1,1-Trifluoro-4-(5-fluoro-2-methylphenyl)-4-methyl-2-(3-methyl-1H-pyrrolo[2,3-c]pyridin-2-ylmethyl)pentan-2-ol] | potent activity | potent agonists
COc1ccc(F)cc1C(C)(C)CC(O)(Cc1cc2cnncc2s1)C(F)(F)F (centres unmarked) [1,1,1-Trifluoro-4-(5-fluoro-2-methoxyphenyl)-4-methyl-2-thieno[2,3-d]pyridazin-2-ylmethylpentan-2-ol] | potent activity | potent agonists
Cc1cc(CC(O)(CC(C)(C)c2cccc3c2OCC3)C(F)(F)F)cc(C)n1 (centres unmarked) [4-(2,3-Dihydrobenzofuran-7-yl)-2-(2,6-dimethylpyridin-4-ylmethyl)-1,1,1-trifluoro-4-methylpentan-2-ol] | potent activity | potent agonists
CC(C)(CC(O)(Cc1cc2ccccc2[nH]1)C(F)(F)F)c1cccc(Br)c1 (centres unmarked) [4-(3-Bromophenyl)-1,1,1-trifluoro-2-(1H-indol-2-ylmethyl)-4-methylpentan-2-ol] | potent activity | potent agonists
CC(C)(CC(O)(Cc1cc2cnccc2[nH]1)C(F)(F)F)c1cc(Br)cc2c1OCC2 (centres unmarked) [4-(5-Bromo-2,3-dihydrobenzofuran-7-yl)-1,1,1-trifluoro-4-methyl-2-(1H-pyrrolo[3,2-c]pyridin-2-ylmethyl)pentan-2-ol] | potent activity | potent agonists
COc1ccc(F)cc1C(C)(C)CC(O)(Cc1cc2ccnc(F)c2[nH]1)C(F)(F)F (centres unmarked) [1,1,1-Trifluoro-4-(5-fluoro-2-methoxyphenyl)-2-(7-fluoro-1H-pyrrolo[2,3-c]pyridin-2-ylmethyl)-4-methylpentan-2-ol] | potent activity | potent agonists
Cc1cccc(C(C)(C)CC(O)(Cc2cc(C)nc(C)c2)C(F)(F)F)c1 (centres unmarked) [2-(2,6-Dimethylpyridin-4-ylmethyl)-1,1,1-trifluoro-4-methyl-4-m-tolylpentan-2-ol] | potent activity | potent agonists
